Data on four molecules can be found in US5961482A, “Iontotherapeutic device and process and iontotherapeutic unit dose” (Rutgers, The State University Of New Jersey, priority 1996, dated 1999).

For data set [1] the following is noted: for Tlag: printed beside pH 4.0 value.
For data set [2] the following is noted: for Cumulative Amount of Drug Absorbed: donor 6.2 mg/ml pH 9.0, 37° C.
A short description of data set [3]: In vitro skin permeation of insulin, Valia-Chien cell, I^125-insulin scintillation counting. The data set is classed as in vitro ADME, hairless rat. As to conditions: for Skin Permeation Rate: 5.3 IU/ml, pH 7.1. The method, then: (§1) An aqueous solution of insulin (5.3 IU/ml containing 0.3 mcCi of I^125 -insulin) is prepared and adjusted to pH 7.1 using NaOH. An aliquot of 3.5 ml of this insulin solution is filled into the refillable dosage unit having a microporous membrane as the drug-releasing surface. The dosage unit is then assembled as a part of the pharmaceutical reservoir electrode of the iontotherapeutic device and membrane surface thereof is applied to the stratum corneum side of hairless rat skin mounted in the Valia-Chien skin permeation cell at 37° C. Samples are withdrawn at regular time intervals and radioactivity is measured by scintillation counter to determine the amount of insulin which has been transdermally absorbed.
as §1, with “pH 3.7, 5.2 or” for “pH”, “either HCl or NaOH solution.” for “NaOH.”, “radio-activity” for “radioactivity”

The test system of data set [4] is blood glucose level (B.G.L.) in the diabetic hairless rats. The experiment in a line: Reduction in blood glucose level in diabetic hairless rats. The data set is classed as in vivo. The protocol:
An aqueous solution of insulin at a concentration of 250 IU/ml is prepared by dissolving 193.8 mg (25.8 IU/mg) of pure porcine insulin in 20 ml of citrate buffer at pH 3.6. Two ml of the insulin solution so prepared is filled into a refillable dosage unit having a microporous membrane as the drug-releasing surface. This insulin-containing reservoir-type dosage unit is then assembled as a part of the pharmaceutical reservoir electrode of the iontotherapeutic device and applied successively on the abdominal skin of 9 diabetic hairless rats with the transdermal periodic iontotherapeutic system operating at 1 mA with square waveform mode to study the effect of frequency, on/off ratio and treatment duration on the reduction of blood glucose level. The results are shown and compared, respectively, in FIGS. 16, 17 and 18.
The same insulin solution is prepared in the same way as in Example 1, except that a phosphate buffer at pH 7.1 is used to replace the double-distilled water. Two ml of the insulin solution so prepared is filled into a refillable dosage unit having a microporous membrane as the drug-releasing surface. This unit dose is applied to 3 diabetic hairless rats following the same operation procedures as in Example 3 to study the effect of treatment duration on the reduction of blood glucose level.
(§2) An aqueous buffer solution of insulin (250 IU/ml) is prepared in citrate-phosphate buffer at pH 3.68. An aliquot of 2.5 ml of this insulin solution is filled into the refillable dosage unit having a microporous membrane as the drug-releasing surface. The dosage unit is then assembled as a part of the pharmaceutical reservoir electrode of the iontotherapeutic device and membrane surface thereof is applied to the skin at abdominal region of 3 groups of anaesthetized, diabetic hairless rats. Blood samples are withdrawn at regular time intervals and glucose levels are measured by glucose analyzer. The reduction in glucose level from hyperglycemic state is the pharmacodynamic responses to the insulin absorbed transdermally.
as §2, with “5” for “3 groups of”

The nature of data set [5]: Plasma immunoreactive insulin concentration in diabetic rabbits by radioimmunoassay. As to conditions: TPIS 1 mA, 500 IU/ml pH 7.10. The data set is classed as in vivo. The protocol:
(§3) An aqueous solution of insulin (500 IU/ml) at pH 7.10 is used. An aliquot of 2.5 ml of this insulin solution is filled into the refillable dosage unit having a microporous membrane as the drug-releasing surface. The dosage unit is then assembled as a part of the pharmaceutical reservoir electrode of the iontotherapeutic device and membrane surface thereof is applied to the skin at dorsal region of 3 diabetic rabbits. Blood samples are withdrawn at regular time intervals and analyzed for immunoreactive insulin concentration by radioimmunoassay and for glucose levels by glucose analyzer. The reduction in glucose level from hyperglycemic state is the pharmacodynamic responses to the insulin transdermally absorbed.
An aqueous solution of insulin (500 IU/ml) at pH 7.10 is used. An aliquot of 2.5 ml of this insulin solution is filled into the refillable dosage unit having a microporous membrane as the drug-releasing surface. The dosage unit is then assembled as a part of the pharmaceutical reservoir electrode of the iontotherapeutic device and membrane surface thereof is applied to the abdominal skin of 2 groups of diabetic rabbits. Blood samples are withdrawn at regular time intervals and analyzed for immunoreactive insulin concentration by radioimmunoassay and for glucose levels by glucose analyzer. […]

Data set [6] has as its system blood glucose level (B.G.L.) in diabetic rabbits. The experiment in a line: Reduction of blood glucose levels in diabetic rabbits by glucose analyzer. It counts as in vivo. The method, then:
as §3
An aqueous solution of insulin (500 IU/ml) at pH 7.10 is used. An aliquot of 2.5 ml of this insulin solution is filled into the refillable dosage unit having a microporous membrane as the drug-releasing surface. The dosage unit is then assembled as a part of the pharmaceutical reservoir electrode of the iontotherapeutic device and membrane surface thereof is applied to the abdominal skin of 2 groups of diabetic rabbits. Blood samples are withdrawn at regular time intervals and analyzed for immunoreactive insulin concentration by radioimmunoassay and for glucose levels by glucose analyzer. The reduction in glucose level from hyperglycemic state is the pharmacodynamic responses to the insulin transdermally absorbed.

Structures can show the parent of a compound that is named as a salt. Where two headings read alike, the source gives them in different places.

On to `COc1ccc2c3c1O[C@H]1C(=O)CC[C@H]4[C@@H](C2)N(C)CC[C@]314` [Hydrocodone, hydrocodone], for which the Skin Permeation Rate is 3.10 mcg/cm^2 /hr in data set [1] (Control, pH 4.0); 4.75 ± 1.70 mcg/cm^2 /hr in data set [1] (Control, pH 7.5, ± S.D.); 37.5 mcg/cm^2 /hr in data set [1] (DC mode, 1 mA, 2 min hourly for 12 hours, pH 4.0); 7.61 ± 2.74 mcg/cm^2 /hr in data set [1] (DC mode, 1 mA, 2 min hourly for 12 hours, pH 7.5, ± S.D.); 59.4 mcg/cm^2 /hr in data set [1] (periodic wave mode, square wave, 2000 Hz, on/off 1/1, 1 mA, 2 min hourly, pH 4.0); 7.01 ± 1.16 mcg/cm^2 /hr in data set [1] (periodic wave mode, square wave, 2000 Hz, on/off 1/1, 1 mA, 2 min hourly, pH 7.5, ± S.D.). The Tlag in data set [1] (Control) turned out to be 5.17 h; in data set [1] (DC mode, 1 mA, 2 min hourly), 0.72 h; in data set [1] (periodic wave mode, 2000 Hz, on/off 1/1, 1 mA), 0.90 h.

For the molecule `COc1ccc2c(c1)c(CC(=O)O)c(C)n2C(=O)c1ccc(Cl)cc1` [Indomethacin, indomethacin], the “Skin Permeation Rate” value was 1.47 mcg/cm^2 /hr in data set [2] (No TPIS, pH 5.5); 0.76 mcg/cm^2 /hr in data set [2] (With TPIS (1.2 mA, 5 min/hr for 7 hours, 2000 Hz, square, on/off 2/1), pH 2.5); 0.44 mcg/cm^2 /hr in data set [2] (With TPIS (1.2 mA, 5 min/hr for 7 hours, 2000 Hz, square, on/off 2/1), pH 4.5); 6.30 mcg/cm^2 /hr in data set [2] (With TPIS (1.2 mA, 5 min/hr for 7 hours, 2000 Hz, square, on/off 2/1), pH 5.5).

In the case of `CN(C)[C@@H]1C(=O)C(C(N)=O)=C(O)[C@@]2(O)C(=O)C3=C(O)c4c(O)cccc4[C@@](C)(O)[C@H]3C[C@@H]12` [Tetracycline HCl, tetracycline HCl], the “Cumulative Amount of Drug Absorbed” value in data set [2] (No TPIS, 1.25 hrs) amounted to 0.0180 mcg/cm^2; in data set [2] (No TPIS, 2.25 hrs) it was 0.0550 mcg/cm^2; in data set [2] (No TPIS, 3.25 hrs), 0.0650 mcg/cm^2; in data set [2] (No TPIS, 4.25 hrs) it was 0.1450 mcg/cm^2; in data set [2] (No TPIS, 5.25 hrs), 0.3040 mcg/cm^2; in data set [2] (With TPIS (1 mA, 10 min/hr, 2000 Hz, square, on/off 4/1), 1.25 hrs), 0.1765 mcg/cm^2. Moreover, the “Cumulative Amount of Drug Absorbed” value in data set [2] (With TPIS (1 mA, 10 min/hr, 2000 Hz, square, on/off 4/1), 2.25 hrs) is listed as 0.2555 mcg/cm^2; in data set [2] (With TPIS (1 mA, 10 min/hr, 2000 Hz, square, on/off 4/1), 3.25 hrs), 0.7815 mcg/cm^2; in data set [2] (With TPIS (1 mA, 10 min/hr, 2000 Hz, square, on/off 4/1), 4.25 hrs) it was 1.3235 mcg/cm^2; in data set [2] (With TPIS (1 mA, 10 min/hr, 2000 Hz, square, on/off 4/1), 5.25 hrs) it was 3.5600 mcg/cm^2.

For the molecule insulin, the Skin Permeation Rate is reported as 37.5 (±4.5) mcIU/cm^2 /hr in data set [3] (TIDD 1 mA, 0 Hz, 5 min per 60 min for 7 hrs) and 3.94±0.29 mcIU/cm^2 /hr in data set [3] (no iontotherapy, 48 hours). In addition, in data set [3] (lower pH solution (pH 3.7) vs pH 5.2 and 7.1), the “increase in TPIS-facilitated skin permeability, pH dependence” value is “greater increase”. Besides, the blood glucose levels entry is recorded as “reduced substantially” in data set [4] (TPIS 1 mA, 2 KHz, on/off 1/1, 40 min, 250 IU/ml pH 3.68, waveforms compared) and “reduced substantially” in data set [6] (TPIS 1 mA, 2 KHz, on/off 1/1, square, 40 min, 500 IU/ml pH 7.10, dorsal skin). The “blood glucose levels, Day 1” value in data set [4] (TPIS 1 mA, 2 KHz, square, on/off 1/1, 40 min, 250 IU/ml pH 3.68, Day 1) is listed as “reduced substantially”. Moreover, the “reduction of blood glucose level, effect of treatment duration” value in data set [4] (TPIS 1 mA, on/off 1/1, 1000 Hz, pH 7.1) was “difference in the rate and the duration, but with equal effectiveness”. The “reduction of blood glucose level, effect of treatment duration 20-40 minutes” value in data set [4] (TPIS 1 mA, on/off 8/1, 2000 Hz, pH 3.6) is listed as “equally effective”. The “reduction of blood glucose level, 2000 Hz vs 1000 Hz” value in data set [4] (TPIS 1 mA, square waveform, frequency of 2000 Hz vs 1000 Hz, pH 3.6) is “greater magnitude and a longer duration of reduction”. Besides, in data set [4] (TPIS on Day 3 with no insulin in electrode, after insulin delivered on Day 1 (skin depot)), the “blood glucose, Day 3” value is given as “also reduced”. The “plasma immunoreactive insulin concentration” value in data set [5] (2 KHz, on/off 1/1, square, 40 min, dorsal skin) is “increases rapidly”. The “plasma immunoreactive insulin concentration, TPIS vs TIDD” value in data set [5] (40 min vs TIDD 4 mA, 80 min, abdominal skin) is recorded as “increases more rapidly”. Moreover, the “reduction of blood glucose level by TIDD” value in data set [6] (TIDD (4× current, 2× administration time), pH 7.10) is “lower than the normoglycemic level”. Moreover, in data set [6] (TPIS 1 mA, 40 min vs TIDD 4 mA, 80 min, 500 IU/ml pH 7.10, abdominal skin), the “blood glucose levels, TPIS vs TIDD” value was “reduced more instantaneously”. In addition, in data set [6] (TPIS, from hyperglycemic level, pH 7.10), the “reduction of blood glucose level by TPIS” value is given as “near instantaneous reduction”. The “blood glucose level control by TPIS vs SC” value in data set [6] (TPIS, pH 7.1, compared with subcutaneous administration) is recorded as “controlled at a highly constant level”.
